Experiments:
Assay type in all cases: cell-based
Brd4 = target: T1, Brd4 (Homo sapiens, UniProt O60885); test: Immunoblot analysis of Brd4 in HEK293 cells (prodrug activity, negative SAR); details: HEK293, 1 μM, 4 h, n=3
T1 construct: immunoblot analysis of Brd4 following 4 h treatment of HEK293 cells; endogenous in cells; host or cells: HEK293 (CRL-1573)
Method: Immunoblotting. Proteins were separated by SDS-PAGE on NuPage 4-12% Bis-Tris gels, followed by transfer to Amersham Protran 0.45 NC nitrocellulose membrane (GE Healthcare) using wet transfer. Membranes were blocked using 5% w/v milk in Tris-buffered saline (TBS) with 0.1% Tween-20. Blots were probed (overnight at 4 °C) using anti-Brd2 (Abcam ab139690, 1:2,000 dilution), anti-Brd3 (Abcam ab50818, 1:500 dilution), and anti-Brd4 (Abcam ab128874, 1:1,000 dilution) primary antibodies, as appropriate. The next day, blots were washed with TBST and incubated (1 h at Room temperature) with anti-Tubulin hFAB-rhodamine (BioRad, 12004166) primary antibody, and either anti-rabbit IRDye 800CW (Licor 1:1,000 dilution) or anti-mouse IRDye 800CW (Licor 1:1,000 dilution) secondary antibody. Blots were developed using a Bio-Rad ChemiDoc MP Imaging System, and band quantification was performed using Image Studio software (LiCor). Band intensities were normalized to the tubulin loading control and reported as % of the average 0.1% DMSO vehicle intensity. Degradation data was plotted and analysed using Prism (Graphpad, version 8). […]
HEK293 (1×10^6) cells incubated with DMSO, 1 μM 11JQ15 or 1 μM 11JQ17 for 4 h with a final DMSO concentration of 0.1% v/v. […] Degradation data was plotted and analysed using Prism (Graphpad, version 8), where bars are mean±SEM of three independent experiments.

HEK293 cells = test: Unbiased whole proteome analysis by TMT-labelling MS; details: HEK293, 1 μM, 4 h, n=3
Method: HEK293 (2.2×10 6) cells were seeded in 10 cm plates (10 mL medium) overnight before treatment with 1 μM compound for a final DMSO concentration of 0.1% v/v. After 4 h incubation time, cells were washed with 2× with DPBS (Gibco) and lysed using 500 μL lysis buffer (100 mM Tris, 4% (w/v) SDS, pH 8.0) supplemented with cOmplete Mini EDTA-free protease inhibitor cocktail (Roche) and benzonase. Lysates were briefly sonicated (2×10 s), clarified by centrifugation (20000 g, 10 min, 4° C.) and the total protein content of the supernatant was quantified using a BCA assay (Thermo Fisher Scientific).
Sample processing, digestion, desalting, labelling, and fractionation were performed at Fingerprint Proteomics (University of Dundee) as described previously [Gadd et al. 10.1038/nchembio.2329]. FIG. 7 depicts fold change of abundance of 7882 proteins comparing 11JQ15 to DMSO treatment (left) and comparing 1 μM 11JQ17 to DMSO treatment (right), as well as their respective p-values (t-test; n=3).

Brd2 = Brd2 (Homo sapiens, UniProt P25440); test: Time-dependent BET degradation, immunoblot; design: endogenous in cells; host or cells: HEK293 (CRL-1573), HeLa (CCL-2); details: HeLa, Brd2, 1 μM
Sequence of Brd2 (P25440 whole entry): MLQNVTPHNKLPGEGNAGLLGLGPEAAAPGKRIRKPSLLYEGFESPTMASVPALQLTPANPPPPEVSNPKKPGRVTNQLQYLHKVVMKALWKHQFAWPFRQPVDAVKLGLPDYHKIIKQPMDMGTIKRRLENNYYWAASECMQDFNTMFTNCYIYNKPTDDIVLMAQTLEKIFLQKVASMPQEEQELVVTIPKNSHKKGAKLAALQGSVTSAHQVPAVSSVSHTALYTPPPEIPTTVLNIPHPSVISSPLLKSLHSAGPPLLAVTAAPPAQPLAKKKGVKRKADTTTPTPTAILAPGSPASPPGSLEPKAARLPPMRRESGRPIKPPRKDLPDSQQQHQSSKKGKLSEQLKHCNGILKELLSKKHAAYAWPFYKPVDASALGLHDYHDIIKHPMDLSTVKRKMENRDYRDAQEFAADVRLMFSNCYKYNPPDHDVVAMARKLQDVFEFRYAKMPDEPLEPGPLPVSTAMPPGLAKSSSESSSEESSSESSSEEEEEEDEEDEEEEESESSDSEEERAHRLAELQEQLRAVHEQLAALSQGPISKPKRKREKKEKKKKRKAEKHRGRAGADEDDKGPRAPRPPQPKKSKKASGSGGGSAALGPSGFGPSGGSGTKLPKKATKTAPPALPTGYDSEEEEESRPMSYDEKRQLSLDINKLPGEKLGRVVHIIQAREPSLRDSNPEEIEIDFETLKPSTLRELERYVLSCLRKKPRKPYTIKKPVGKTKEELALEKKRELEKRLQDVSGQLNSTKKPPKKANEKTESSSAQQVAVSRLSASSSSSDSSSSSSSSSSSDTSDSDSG
Method: Immunoblotting. Proteins were separated by SDS-PAGE on NuPage 4-12% Bis-Tris gels, followed by transfer to Amersham Protran 0.45 NC nitrocellulose membrane (GE Healthcare) using wet transfer. Membranes were blocked using 5% w/v milk in Tris-buffered saline (TBS) with 0.1% Tween-20. Blots were probed (overnight at 4 °C) using anti-Brd2 (Abcam ab139690, 1:2,000 dilution), anti-Brd3 (Abcam ab50818, 1:500 dilution), and anti-Brd4 (Abcam ab128874, 1:1,000 dilution) primary antibodies, as appropriate. The next day, blots were washed with TBST and incubated (1 h at Room temperature) with anti-Tubulin hFAB-rhodamine (BioRad, 12004166) primary antibody, and either anti-rabbit IRDye 800CW (Licor 1:1,000 dilution) or anti-mouse IRDye 800CW (Licor 1:1,000 dilution) secondary antibody. Blots were developed using a Bio-Rad ChemiDoc MP Imaging System, and band quantification was performed using Image Studio software (LiCor). Band intensities were normalized to the tubulin loading control and reported as % of the average 0.1% DMSO vehicle intensity. Degradation data was plotted and analysed using Prism (Graphpad, version 8).
HEK293 (0.5×10^6) cells were seeded in standard 6-well plates (2 mL medium) overnight before treatment with compounds at 1 μM concentration, with a final DMSO concentration of 0.1% v/v. After incubation for the desired time (0-24 hrs), cells were washed with DPBS (Gibco) and lysed using 85 μL RIPA buffer (Sigma-Aldrich) supplemented with complete Mini EDTA-free protease inhibitor cocktail (Roche) and benzonase. Lysates were clarified by centrifugation (20000 g, 10 min, 4° C.) and the total protein content of the supernatant was quantified using a Bradford colorimetric assay. Samples were prepared using equal amounts of total protein and LDS sample buffer (Invitrogen). Band intensities were normalized to the tubulin loading control and reported as % of the average 0.1% DMSO vehicle intensity. Degradation data was plotted and analysed using Prism (Graphpad, version 8).
MZ1 and 11JQ17 were used at 1 μM (4 h) for positive and negative controls, respectively. […]

| SMILES | Brd4 levels (FIG. 3) (Brd4) | fold change of abundance of 7882 proteins vs DMSO (FIG. 7) (HEK293 cells) | Dmax at 1 µM (Brd2) [%] | Abs. T1/2 (Brd2; time to deplete 50% of the protein relative to DMSO) [h] | T1/2 (Brd2; time to reach 50% of the Dmax) [h] |
| --- | --- | --- | --- | --- | --- |
| Cc1sc2c(c1C)C(c1ccc(Cl)cc1)=N[C@@H](CC(=O)NCCOCCNC(=O)c1cc(SC(=O)c3ccccc3)c3ncc(C(=O)NCCc4nccs4)cc3c1)c1nnc(C)n1-2 [Example 11JQ15] | significant depletion of Brd4 levels | selective degradation of Brd2, Brd3 and Brd4 |  |  |  |
| Cc1sc2c(c1C)C(c1ccc(Cl)cc1)=N[C@@H](CC(=O)NCCCCNC(=O)c1cc(S)c3ncc(C(=O)NCCc4nccs4)cc3c1)c1nnc(C)n1-2 [Example 11JQ7] |  |  | 50 | 4 | 4 |
